Test results from PubChem BioAssay (NCI).
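Values below derive from 48-hour exposures of cells grown in 96-well plates, with endpoints linearly interpolated between the two concentrations bracketing the appropriate inhibition level. GI50 marks 50% less growth. TGI denotes the concentration required for complete inhibition of growth.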

Columns and labels:
Assay in all cases: NCI anticancer screen, dose series, 48 h
[1] = system: SK-OV-3 ovarian
[2] = system: MCF7 breast
[3] = system: BT-549 breast
[4] = system: COLO 205 colon
[5] = system: TK-10 renal
[6] = system: SF-295 CNS
[7] = system: NCI-H226 lung
[8] = system: ACHN renal
[9] = system: A498 renal
[10] = system: IGROV1 ovarian

## CC1(O)CC23CC(O)C4(O)C(CC(O)C4(C)C)C(C)(O)C2CCC1C3O (stereo unspecified)
[1]
  TGI: > 100 µM
[2]
  TGI: > 100 µM
[3]
  TGI: > 100 µM
[4]
  TGI: > 100 µM
[5]
  TGI: > 100 µM
[6]
  TGI: > 100 µM
[7]
  TGI: > 100 µM
[8]
  TGI: > 100 µM
[9]
  TGI: > 100 µM
[10]
  TGI: > 100 µM

## CCOC(=O)CCC(NC(=O)c1ccc(NCc2ccc3nc(OC)c(OC)nc3c2)c2ccccc12)C(=O)OCC (stereo unspecified)
[1]
  TGI: > 100 µM
[2]
  TGI: > 100 µM
[3]
  TGI: > 100 µM
[4]
  TGI: > 100 µM
[5]
  TGI: > 100 µM
[6]
  TGI: > 100 µM
[7]
  TGI: > 100 µM
[8]
  TGI: > 100 µM
[9]
  TGI: > 100 µM
[10]
  TGI: > 100 µM

## CCOC(=O)CSc1nc(-c2ccc(Cl)cc2)c(C#N)c(=O)[nH]1
[1]
  TGI: > 100 µM
[2]
  TGI: > 100 µM
[3]
  TGI: > 100 µM
[4]
  TGI: > 100 µM
[5]
  TGI: > 100 µM
[6]
  TGI: > 100 µM
[7]
  TGI: > 100 µM
[8]
  TGI: > 100 µM
[9]
  TGI: > 100 µM
[10]
  TGI: > 100 µM

## CC1CC(C)(C)CC(OCCN2CCCCC2)(c2ccccc2)C1 (stereo unspecified)
[1]
  TGI: 28.3 µM
[2]
  TGI: 26.4 µM
[3]
  TGI: 27.8 µM
[4]
  TGI: 21.8 µM
[5]
  TGI: 26.7 µM
[6]
  TGI: 22.9 µM
[7]
  TGI: 38.3 µM
[8]
  TGI: 30.3 µM
[9]
  TGI: 26.1 µM
[10]
  TGI: 27.3 µM

## CN=C1C=C(/N=C2/C=C(N/C(=C\C#N)C(C)(C)O)OC2(C)C)OC1(C)C
[1]
  TGI: > 73.6 µM
[2]
  TGI: > 100 µM
[3]
  TGI: > 77.8 µM
[4]
  TGI: > 100 µM
[5]
  TGI: > 100 µM
[6]
  TGI: > 100 µM
[7]
  TGI: > 100 µM
[8]
  TGI: > 100 µM
[9]
  TGI: 88.9 µM
[10]
  TGI: > 72.5 µM

## O=[N+]([O-])C(/C=C(\Cl)[N+](=O)[O-])=C(Nc1ccccc1)Nc1ccccc1
[1]
  TGI: 34.5 µM
[2]
  TGI: 14.6 µM
[3]
  TGI: 20.7 µM
[4]
  TGI: 23.1 µM
[5]
  TGI: 25.4 µM
[6]
  TGI: 31.6 µM
[7]
  TGI: 27.4 µM
[8]
  TGI: 31.9 µM
[9]
  TGI: 31.7 µM
[10]
  TGI: 31 µM

## CCOC(=O)c1c(-c2ccc(Cl)cc2)c(C#N)c(=S)n(C2OC(COC(C)=O)C(OC(C)=O)C(OC(C)=O)C2OC(C)=O)c1C (stereo unspecified)
[1]
  TGI: > 100 µM
[2]
  TGI: > 100 µM
[3]
  GI50: > 100 µM
  TGI: > 100 µM
[4]
  TGI: > 100 µM
[5]
  TGI: > 100 µM
[6]
  TGI: > 100 µM
[7]
  TGI: > 100 µM
[8]
  TGI: > 100 µM
[9]
  TGI: > 100 µM
[10]
  TGI: > 100 µM

## c1ccc(CN2CCC(CNc3ncnc4ccccc34)C2)cc1 (stereo unspecified)
[1]
  TGI: > 100 µM
[2]
  TGI: > 100 µM
[3]
  TGI: > 100 µM
[4]
  TGI: > 100 µM
[5]
  TGI: > 100 µM
[6]
  TGI: > 100 µM
[7]
  TGI: > 100 µM
[8]
  TGI: > 100 µM
[9]
  TGI: > 100 µM
[10]
  TGI: > 100 µM

## CC(C)(C)[C@H]1NC(=O)CN1C(=O)OCc1ccccc1
[1]
  TGI: > 100 µM
[2]
  TGI: > 100 µM
[3]
  TGI: > 100 µM
[4]
  TGI: > 100 µM
[5]
  TGI: > 100 µM
[6]
  TGI: > 100 µM
[7]
  TGI: > 100 µM
[8]
  TGI: > 100 µM
[9]
  TGI: 54.9 µM
[10]
  TGI: > 100 µM

## CC1CC[C@@]2(OC1)OC1C[C@H]3[C@@H]4CC=C5C[C@@H](OC6OC(CO)C(OC7OC(CO)C(O)C(O)C7O)C(O)C6OC6OC(C)C(O)C(O)C6O)CC[C@]5(C)[C@H]4CC[C@]3(C)C1[C@@H]2C (stereo partly specified)
[1]
  TGI: 6.96 µM
[2]
  TGI: 1.36 µM
[3]
  TGI: 0.848 µM
[4]
  TGI: 0.91 µM
[5]
  TGI: 3.73 µM
[6]
  TGI: 5.27 µM
[7]
  TGI: 1.67 µM
[8]
  TGI: 4.4 µM
[9]
  TGI: 1.32 µM
[10]
  TGI: 1.02 µM

## CCOc1ccc(Nc2nc(N)nc(N)c2N=O)cc1
[1]
  TGI: > 100 µM
[2]
  TGI: > 100 µM
[3]
  TGI: > 100 µM
[4]
  TGI: > 100 µM
[5]
  TGI: > 100 µM
[6]
  TGI: > 100 µM
[7]
  TGI: > 100 µM
[8]
  TGI: > 100 µM
[9]
  TGI: > 100 µM
[10]
  TGI: 33.4 µM

## CC1OC23CCCCC2C(C#N)(C#N)C1(C#N)C(=N)O3 (stereo unspecified)
[1]
  TGI: > 100 µM
[2]
  TGI: 52.3 µM
[3]
  TGI: 34.4 µM
[4]
  TGI: 38.5 µM
[5]
  TGI: 46.8 µM
[6]
  TGI: > 100 µM
[7]
  TGI: > 100 µM
[8]
  TGI: 42.8 µM
[9]
  TGI: 61.6 µM
[10]
  TGI: 41.9 µM

## O=c1[nH]c2ccccc2c(=O)n1/N=C\c1ccccc1O
[1]
  TGI: > 100 µM
[2]
  TGI: > 100 µM
[3]
  TGI: > 100 µM
[4]
  TGI: > 100 µM
[5]
  TGI: > 100 µM
[6]
  TGI: > 100 µM
[7]
  TGI: > 100 µM
[8]
  TGI: > 100 µM
[9]
  TGI: > 100 µM
[10]
  TGI: > 100 µM

## COC1CCC(OS(C)(=O)=O)C(C)O1 (stereo unspecified)
[1]
  TGI: > 10 µM
[2]
  TGI: > 10 µM
[3]
  TGI: > 10 µM
[4]
  TGI: > 10 µM
[5]
  TGI: > 10 µM
[6]
  TGI: > 10 µM
[7]
  TGI: > 10 µM
[8]
  TGI: > 10 µM
[9]
  TGI: > 10 µM
[10]
  TGI: > 10 µM

## CC(C)NC(=O)OCCN=C1c2ccccc2C(Br)C(Br)c2ccccc21 (stereo unspecified)
[1]
  TGI: > 62.9 µM
[2]
  TGI: 28.2 µM
[3]
  TGI: 29.3 µM
[4]
  TGI: 18.9 µM
[5]
  TGI: 21.6 µM
[6]
  TGI: 42 µM
[7]
  TGI: 33.2 µM
[8]
  TGI: 25.4 µM
[9]
  TGI: 6.58 µM
[10]
  TGI: 7.14 µM

## O=C(c1ccccc1)C1C(c2ccccc2[N+](=O)[O-])N1C1CCCCC1 (stereo unspecified)
[1]
  TGI: > 60.9 µM
[2]
  TGI: 15.9 µM
[3]
  TGI: 32.3 µM
[4]
  TGI: 20.4 µM
[5]
  TGI: 7.4 µM
[6]
  TGI: 35.3 µM
[7]
  TGI: 34 µM
[8]
  TGI: 3.74 µM
[9]
  TGI: 30.5 µM
[10]
  TGI: 17.4 µM
